Assay [1] concerns radiation-induced dermatitis on backs of rats. As to the kind of experiment: Radiation-induced dermatitis in rat skin model. It counts as in vivo. As to conditions: 20 mM epinephrine; vehicle 0:95:5; cage 480; 8.7 Gy. On the procedure: To determine efficacy of chemoprotective polyamines in preventing radiation-induced dermatitis, adult rats were topically treated with the compounds before and after radiation treatment. Rats were exposed to medically relevant levels of radiation that could induce clinical radiation dermatitis. Sprague Dawley rats (Harlan Spraque Dawley) at 4-6 weeks-old were anesthetized with sodium pentobarbital at 40 mg/kg body weight (Sigma, St. Louis, Mo.) prior to radiation exposure. A defined area (1.5×2 cm) on the backs of rats was irradiated using a Mark I, Model 30, Cs 137 irradiator (J. L. Sheppard & Associates). Before topical drug treatment or irradiation, the backs of the rats were clipped using an Oster clipper at the closest setting. The rest of the body was protected from radiation exposure using a lead shield (2.5 cm thick). A dose response study was initially performed to reproduce relevant dermatitis that matched the Grade (I-IV) scale used to score the severity of radiation-induced dermatitis in humans. The severity of the dermatitis was scored 12-13 days post-irradiation at the peak of the dermal inflammation. […] Radiation dermatitis of Grade II-III was considered most clinically relevant, so a radiation dose of 8.7 Gy was typically used in the rats. The clipped back region on the rats was treated topically with aminothiol in delivery vehicle four times in the two hours immediately preceding irradiation (at −2 hr, −1 hr, −30 min, and −10 min; irradiation was at 0 min
The polyamines or amino thiols were prepared in a delivery vehicle, consisting of ethanol:propylene glycol:water, ranging from 0:95:5 to 50:30:20 depending upon the solubility characteristics of the topical molecule, and the degree of dermal penetration desired. A vehicle composed of an emulsion formed by sonication of ‘nonionic liposomes’ and isopropyl myristate was also used (Jayaraman, S. et al., J. Pharm. Sci. 85:1082-1084, 1996). In a commonly used protocol, 220 μl of topical drug/vehicle was applied to an area ˜2 cm×3 cm on the back in the 2 hr just prior to irradiation. Rats treated with only the delivery vehicle served as controls. Twelve to thirteen days post-radiation, the rats were evaluated for dermatitis within the irradiated area. In early studies, a modified scoring scale described by Masuda K. et al., Int. J. Radiation Oncol. Biol. Phys: 12, 1645 (1986) was used, and in later studies, including those described here, a simplified scoring system was used in which the percentage of the irradiated, rectangular field covered with scrab material was estimated between 0 and 100% to provide scores on a scale between 0 and 100.
This example relates to the use of a rat skin model to evaluate the efficacy of two amino thiol compounds in preventing radiation-induced dermatitis. To test whether topically-applied aminothiols could prevent the radiodermatitis caused by external beam radiotherapy, the rodent model described in Example 3 was slightly modified. Briefly, the radiodermatitis model involved: • i) shaving the backs of 6-7 week old rats or mice; • ii) applying four topical doses of aminothiol in a delivery vehicle composed of ethanol:propylene glycol (PG):water in the 2 hr prior to irradiation; • iii) irradiating a small, 3 cm^2 (1.5×2 cm) area on the animal's back (through a window in a lead plate) with 8.7 Gy of γ radiation from a Cs^137 source; and • iv) scoring the severity of the dermatitis 12-13 days later, at the peak of the inflammatory skin reaction. Radiodermatitis severity was scored by estimating the percentage of the irradiated field that was covered by scrab material.
Methods: Treatments were applied as described in Example 6.

Assay [2] relates to radiation-induced alopecia in 11 day old rat pups. As to conditions: vehicle 50:25:25. How it is done:
In some cases, topical vasoconstrictors may be used to reduce the severity of cancer therapy side-effects. […] Because cysteamine might have been toxic if distributed systemically at high concentrations in animals, a vasoconstrictor, in this case epinephrine (epinephrine-HCl, Sigma Chemical, 20 mM in topical 0:95:5 vehicle; ethanol:PG:water) was topically co-applied with cysteamine in an effort to prevent any potential uptake of the small aminothiol by skin vasculature. […] These initial experiments were done using a rat model where whole-body radiation is used to induce alopecia. This protocol is a variation of the Cytoxan-induced alopecia protocol described in Example 2. Here, 11 day old rat pups receive four topical treatments to their backs in the two hour period (at −2 hr, −1 hr, −30 min, −10 min) just prior to receiving whole-body irradiation (3.65 min) in a Cs137 irradiator. […] The topical vehicle varies from 0:95:5 (ethanol:PG:water) to 50:30:20, depending upon the solubility and concentration of the particular aminothiol. […] Following irradiation, the animals are housed with lactating mothers for 9 days and protection from radiation-induced alopecia within the topically-treated area is scored on day 20 of life. Protection is scored as the percentage of coat density seen in unirradiated rats.
Here, epinephrine-HCl (FW:220) was dissolved in an ethanol:propylene glycol:water delivery vehicle and was applied four times in the two hours just prior to irradiating the 11 day old rat pups. The animals were then housed with lactating mothers until day 20 of life when the degree of protection conferred by the topical epinephrine was scored.

For assay [3], the system named is Cytoxan-induced alopecia in rat pups. As to the kind of experiment: Cytoxan-induced alopecia in rat pups. Type of assay: in vivo. How it is done:
Induction of alopecia by cytoxan (CTX). Lactating Sprague Dawley mother rats with rat pups were purchased from Harlan Sprague Dawley (Indianapolis, Ind.). The mother rats were given food and water ad libitum. The rats pups were tested in the model of chemotherapy-induced alopecia described by Hussein A. M. et al., Science: 249, 1564 (1990). Cytoxan (CTX), a chemotherapeutic widely used in the treatment of cancer, was used to induce alopecia in the rats. A common side effect of cytoxan treatment in patients is alopecia. Lyophilized vials of Cytoxan were obtained from Mead-Johnson. To produce CTX-induced alopecia, 11 day old rat pups, which are at the peak of coat growth, were injected i.p. with 30-35 μg of CTX/gm body weight. CTX was dissolved in water. By day 18 of life, the animals have shed virtually 100% of their coat leaving bare skin on their backs. Thus, topical application of protective drugs to the animal's back prior to the CTX insult provides a suitable test for prevention of chemotherapy-induced alopecia. A separate alopecia assay was also developed in which whole-body irradiation on day 11 of life was used as the insult. This assay is described in further detail in Example 12 which follows.
In the earliest studies with chemoprotective polyamines, the molecules were prepared in a topical delivery vehicle consisting of from 50-70% ethanol in water, depending on the solubility of the compound. The compounds in ethanol/water solution from 50-150 µl in volume were topically administered to the backs of the pups once per day before and after CTX challenge. Using a micropipette, the formulation was applied to an approximately 2 cm2 section of skin on the backs of the rat pups. Specifically, the pups were treated once daily for the 4-5 days before CTX challenge, once on the day of CTX challenge and once daily for 5 days afterwards. Control groups consisted of pups receiving only delivery vehicle. […]
In the earliest studies with chemoprotective polyamines, hair loss was evaluated using a modified alopecia-scoring index described by Chen G. et al., Int. […] In the later studies with aminothiols a simpler scoring scale was adopted in which coat density was scored on a 0-100 scale as “% of normal coat density.”
Method: To assess the ability of topical treatments to prevent Cytoxan-induced alopecia we used a published protocol (Hussein et al., Science. 249(4976):1564-6, 1990) in which 11 day old neonate rat pups (Sprague-Dawley) receive a total of 6 topical skin treatments of active agent(s) during the 5 hr before and 2 hr after a single ip dose of Cytoxan (32 ug/gm b.w.). […] The density of the rat coats in the topical treatment area was scored on day 18 of life for animals injected with Cytoxan.

Assay [4] concerns primary, diploid fibroblasts isolated from human skin. As to the kind of experiment: Growth inhibition of primary diploid human skin fibroblasts. Type of assay: cell-based. As to conditions: 50% inhibition of human skin fibroblast growth. How it is done: The in vitro growth inhibitory effects of certain of the chemoprotective polyamines of the invention were measured using primary, diploid fibroblasts isolated from human skin.

The next assay addresses DNA. As to the kind of experiment: DNA binding/precipitation from solution. The following applies: Expt. 1; read-out: DNA Bind/ppt. IC50 (uM), Expt. 1. From the text: The chemoprotective polyamines provided herein are also able to bind, denature and precipitate DNA from solution. As the skilled artisan will appreciate, as the concentration of polyamine is increased, there is a point where polyamine binding to helical B-DNA induces single-stranded ‘bubbles’ and conversion to other forms of DNA structure, such as Z-DNA (Feuerstein, B. et al., Nuc. Acids Res. 17:6883-6892, 1989; Basu, H. and Marton, L., Biochem. J. 244:243-246, 1987), as well as precipitating the DNA from solution.

Assay [5] relates to p21 protein in 23SK human skin cells. As to the kind of experiment: p21 induction by western analysis. The following applies: 23SK cells, 30 hr exposure. Type of assay: cell-based. On the procedure: FIGS. 3A and 3B illustrate the level of induced p21 protein seen in diploid human fibroblasts after a 30 hr exposure to each of the indicated chemoprotective polyamines. […] In these experiments, the 23SK human skin cells were exposed for 30 hr to an “IC80” dose of each of the indicated chemoprotective polyamines and then lysed. Cell extracts were then prepared in order to measure p21 levels by western analysis (FIG. 3A).
FIG. 3 illustrates that chemoprotective polyamines are able to induce expression of the negative cell cycle regulatory protein, p21, after exposing the human skin cells to the polyamine molecules. […] In these experiments, the 23SK human skin cells were exposed for 30 hr to an “IC80” dose of each of the indicated chemoprotective polyamines and then lysed. Cell extracts were then prepared in order to measure p21 levels by western analysis (FIG. 3A). Although the ability of modified polyamines to induce p21 is known in the literature (Kramer, D. et al., Cancer Res. 59:1278-1286, 1999), it is a novel aspect of this invention that those chemoprotective polyamines with longer aliphatic “arms” were better able to induce expression of p21 as shown in FIG. 4.

For another assay, the system named is 23SK skin cells. As to the kind of experiment: Flow cytometry cell cycle distribution. It counts as cell-based, human. The following applies: IC80 dose. From the text: FIGS. 5A-5D are cell histograms showing the results from flow cytometry analysis of chemoprotective polyamine-treated 23SK skin cells.
In FIG. 5, cell histograms showing the results from flow cytometry analysis of chemoprotective polyamine-treated 23SK skin cells are shown. […] The transient nature of the cell cycle block induced by chemoprotective polyamines is believed to be an important aspect of their efficacy, i.e., their ability to block cell cycle progression in stem cells during the course of chemo- or radiotherapy, and the resumption of normal stem cell division after a given cancer therapy course has been completed.
For orientation: Flow cytometry measures light scatter and fluorescence of single cells or particles in a stream.

In the next assay the test system is cell cycle. As to conditions: Jeitner and Renton 1996; Snyder and Grdina 2000; Kramer et al. 1997; cited from earlier work.
[6] abbreviates: Expt. 1, read-out: IC50 (uM), Expt. 1.
[7] abbreviates: Expt. 2, read-out: IC50 (uM), Expt. 2.

Like-named read-outs stand apart in the source and are kept apart here.

Take `CNC[C@H](O)c1ccc(O)c(O)c1` [epinephrine]: the “Dermatitis Score (% of irradiated field free of scab material)” value in assay [1] was found to be 20 ± 8%. Besides, the “Alopecia Score (% Normal Coat Density in Topical Treatment Area)” value in assay [2] (20 mM epinephrine, 3.65 min γ irradiation (Cs137), Experiment 647-650) is recorded as 10%; in assay [2] (100 mM epinephrine, 3.65 min γ irradiation) it was 35 ± 19%; in assay [2] (500 mM epinephrine, 3.65 min γ irradiation), 43 ± 17%; in assay [2] (1000 mM epinephrine, 3.65 min γ irradiation) it was 94 ± 6%.

For `Oc1ccc(/C=C/c2cc(O)cc(O)c2)cc1` [Resveratrol, trihydroxy-trans-stilbene, reference compound], in assay [3] (Resveratrol 5 umol/day alone, ip Cytoxan 32 ug/gm b.w., Experiment 564-567), the “Alopecia Score (% Normal Coat Density in Topical Treatment Area)” value was 5%.

Turning to `CCNCCCCNCCCCNCC=C(CNCC)CNCCCCNCCCCNCC` [PrC-111], the IC50 in assay [4] (setting [6]) came to 980 µM. Besides, the IC50 in assay [4] (setting [7]) was 180 µM. The IC50 at DNA turned out to be 88 µM. Moreover, in assay [5], the “p21 fold-induction at IC80 Dose” value came to 2.22 fold. In addition, in the assay on 23SK skin cells, the “Cell Cycle Distribution At IC80 Dose (%) G1” value worked out at 60%, the “Cell Cycle Distribution At IC80 Dose (%) G2/M” value is given as 14% and the “Cell Cycle Distribution At IC80 Dose (%) S” value is recorded as 25%.

With `CCNCCCCNCCCCNCCCCNCCCCNCC=C(CNCC)CNCCCCNCCCCNCCCCNCCCCNCC` [PrC-113], in assay [4] (setting [6]), the IC50 was 0.33 µM. The IC50 in assay [4] (setting [7]) came out at 0.21 µM. The IC50 on DNA amounted to 35 µM. Besides, the “p21 fold-induction at IC80 Dose” value in assay [5] came out at 3.21 fold. In addition, in the assay on 23SK skin cells, the “Cell Cycle Distribution At IC80 Dose (%) G1” value is 77%, the “Cell Cycle Distribution At IC80 Dose (%) G2/M” value was 14% and the “Cell Cycle Distribution At IC80 Dose (%) S” value is listed as 8%.

`CCNCCCNCCCNCCCNCC` [DENSPM]: the “cell cycle arrest reported in literature” value in the assay with cell cycle is “G1-specific cell cycle block that was reversible”.

With `CCNCCCCNCC=C(CNCC)CNCCCCNCC` [PrC-110], the IC50 in assay [4] (setting [6]) turned out to be 1680 µM. Besides, the IC50 in assay [4] (setting [7]) was 809 µM. Further, on DNA, the IC50 came to 270 µM. Further, in assay [5], the “p21 fold-induction at IC80 Dose” value is recorded as 2.91 fold. Moreover, in the assay on 23SK skin cells, the “Cell Cycle Distribution At IC80 Dose (%) G1” value is on record as 60%, the “Cell Cycle Distribution At IC80 Dose (%) G2/M” value is listed as 14% and the “Cell Cycle Distribution At IC80 Dose (%) S” value is listed as 26%. The “protection against Cytoxan-induced alopecia” value in assay [3] (topical, alcohol:water vehicle, once per day five days before and five days after single systemic Cytoxan dose) is “excellent efficacy”.
